Test results published in PubChem BioAssay AID330 (DTP/NCI, 2004).
Where “and” joins values, the source holds several entries; their conditions need not be identical. Equal values may be shown once. Toxic doses and inconclusive results are not listed. Rule for the calls: active = survival T/C of 150% or more; inactive = T/C below 125% in these data. Square brackets hold non-standard residues; d marks the D form. Peptide text beside a SMILES is read from it. ξ: configuration not given here. ξNle = CCCCC(N)C(=O)O

Tested on: P388 leukemia ip, CD2F1 mice, survival T/C
Assay: NCI In Vivo Anticancer Drug Screen. Data for tumor model P388 Leukemia (intraperitoneal) in CD2F1 (CDF1) mice
Settings: endpoint: median survival time, higher = longer survival
How it was run: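 Mice carrying the transplanted tumor received test compound or vehicle. Survival was recorded in each group, and the value is the treated-group measurement divided by that of the vehicle-treated control group.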

[1] = dose: 50.0 mg/kg/injection, schedule: Q01DX005 (ip), vehicle: saline with Tween-80
[2] = dose: 100.0 mg/kg/injection, schedule: Q01DX005 (ip), vehicle: saline with Tween-80
[3] = dose: 200.0 mg/kg/injection, schedule: Q01DX005 (ip), vehicle: saline with Tween-80
[4] = dose: 50.0 mg/kg/injection, schedule: Q01DX005 (ip), vehicle: Klucel (hydroxypropylcellulose) (HPC)
[5] = dose: 100.0 mg/kg/injection, schedule: Q01DX005 (ip), vehicle: Klucel (hydroxypropylcellulose) (HPC)
[6] = dose: 200.0 mg/kg/injection, schedule: Q01DX005 (ip), vehicle: Klucel (hydroxypropylcellulose) (HPC)
[7] = dose: 100.0 mg/kg/injection, schedule: Q01DX009 (ip), vehicle: saline with Tween-80
[8] = dose: 200.0 mg/kg/injection, schedule: Q01DX009 (ip), vehicle: saline with Tween-80
[9] = dose: 50.0 mg/kg/injection, schedule: Q01DX009 (ip), vehicle: saline
[10] = dose: 100.0 mg/kg/injection, schedule: Q01DX009 (ip), vehicle: saline
[11] = dose: 200.0 mg/kg/injection, schedule: Q01DX009 (ip), vehicle: saline
[12] = dose: 50.0 mg/kg/injection, schedule: Q01DX009 (ip), vehicle: Klucel (hydroxypropylcellulose) (HPC)
[13] = dose: 6.25 mg/kg/injection, schedule: Q01DX009 (ip), vehicle: saline
[14] = dose: 12.5 mg/kg/injection, schedule: Q01DX009 (ip), vehicle: saline

Measured: T/C

CC(=O)NCc1cccc([N+](=O)[O-])c1
inactive: dose: 25.0 mg/kg/injection, schedule: Q01DX005 (ip), vehicle: saline with Tween-80 100 % of control | [1] 103 % of control | [2] 100 % of control | [3] 105 % of control

COc1ccc(-c2cc(-c3cc(-c4ccc(OC)cc4)on3)no2)cc1
inactive: dose: 60.0 mg/kg/injection, schedule: Q01DX005 (ip), vehicle: saline 100 % of control | dose: 120.0 mg/kg/injection, schedule: Q01DX005 (ip), vehicle: saline 92 % of control | dose: 240.0 mg/kg/injection, schedule: Q01DX005 (ip), vehicle: saline 97 % of control

O=C1C2CCCN2C(=S)N1c1ccc([N+](=O)[O-])cc1 (stereo unspecified)
inactive: [4] 100 % of control | [5] 100 % of control | [6] 99 % of control

CCCCC(NC(=O)CNC(=O)CN)C(=O)O (stereo not drawn) (H-Gly-Gly-[ξNle]-OH)
inactive: [1] 94 % of control | [2] 94 % of control | [3] 93 % of control

CCOC(=O)CSc1cc(O)c2ccccc2c1N=Nc1ccc(C(=O)OCC)cc1
inactive: [1] 104 % of control | [2] 110 % of control | [3] 114 % of control

O=C(CCCCC(=O)Nc1ccc2c(=O)c3ccccc3[nH]c2c1)Nc1ccc2c(=O)c3ccccc3[nH]c2c1
inactive: [1] 99 % of control | [2] 104 % of control | [3] 104 % of control

CS(=O)(=O)OCC1CCSC1=O (stereo unspecified)
inactive: dose: 50.0 mg/kg/injection, schedule: Q01DX009 (ip), vehicle: saline with Tween-80 100 % of control | [7] 106 % of control | [8] 108 % of control

CC1CCCC(C2CC3CCCCC3C(N)[N-]2)[N-]1.CC1CCCC(C2CC3CCCCC3C(N)[N-]2)[N-]1.O=[N+]([O-])O.[Cu+2] (stereo unspecified)
inactive: dose: 100.0 mg/kg/injection, schedule: Q04DX002 (ip), vehicle: suspension in saline 105 % of control | dose: 200.0 mg/kg/injection, schedule: Q04DX002 (ip), vehicle: suspension in saline 112 % of control

O=C(CC(O)CCc1ccc(O)c(O)c1)O[C@H]1Cc2c(O)cc(O)cc2O[C@H]1c1ccc(O)c(O)c1 (stereo partly specified)
inactive: dose: 20.0 mg/kg/injection, schedule: Q01DX005 (ip), vehicle: saline with Tween-80 105 % of control | dose: 40.0 mg/kg/injection, schedule: Q01DX005 (ip), vehicle: saline with Tween-80 105 % of control | dose: 80.0 mg/kg/injection, schedule: Q01DX005 (ip), vehicle: saline with Tween-80 100 % of control

O=c1[nH]c2cc([N+](=O)[O-])ccc2nc1/C=C(\O)c1cccnc1
inactive: dose: 60.0 mg/kg/injection, schedule: Q01DX005 (ip), vehicle: Klucel (hydroxypropylcellulose) (HPC) 94 % of control | dose: 120.0 mg/kg/injection, schedule: Q01DX005 (ip), vehicle: Klucel (hydroxypropylcellulose) (HPC) 88 % of control | dose: 240.0 mg/kg/injection, schedule: Q01DX005 (ip), vehicle: Klucel (hydroxypropylcellulose) (HPC) 94 % of control

COCC(O)COC
inactive: [9] 94 % of control | [10] 96 % of control | [11] 87 % of control

ClCCN(CCCCCCN(CCCl)c1ccccc1)c1ccccc1
inactive: [12] 109 % of control | dose: 100.0 mg/kg/injection, schedule: Q01DX009 (ip), vehicle: Klucel (hydroxypropylcellulose) (HPC) 109 % of control | dose: 200.0 mg/kg/injection, schedule: Q01DX009 (ip), vehicle: Klucel (hydroxypropylcellulose) (HPC) 108 % of control

COc1ccc(CC2C=CCN2C(=O)OCc2ccccc2)cc1 (stereo unspecified)
inactive: dose: 100.0 mg/kg/injection, schedule: Q01DX001 (ip), vehicle: Klucel (hydroxypropylcellulose) (HPC) 106 % of control | dose: 200.0 mg/kg/injection, schedule: Q01DX001 (ip), vehicle: Klucel (hydroxypropylcellulose) (HPC) 99 % of control | dose: 400.0 mg/kg/injection, schedule: Q01DX001 (ip), vehicle: Klucel (hydroxypropylcellulose) (HPC) 99 % of control

CCCCCCCC/C=C\CCCCCCCC(=O)OCCCCCCCCCCCCCCCCC
inactive: [7] 100 % of control | [8] 100 % of control | dose: 400.0 mg/kg/injection, schedule: Q01DX009 (ip), vehicle: saline with Tween-80 96 % of control

O=C(Nc1ccccc1C(=O)OCCCl)NN1CCCCCC1
inactive: [4] 107 % of control | [5] 100 % of control | [6] 98 % of control

N#C/C(=C\c1c2ccccc2c(Cl)c2ccccc12)C(N)=S
inactive: [13] 90 % of control | [14] 88 % of control | dose: 25.0 mg/kg/injection, schedule: Q01DX009 (ip), vehicle: saline 90 % of control | [9] 92 % of control | [10] 97 % of control | [11] 103 % of control

CC(NNC(=S)N(C)C1CCCCC1)c1nccc2ccccc12 (stereo unspecified)
inactive: dose: 30.12 mg/kg/injection, schedule: Q01DX001 (ip), vehicle: Klucel (hydroxypropylcellulose) (HPC) 101 % of control and 102 % of control | dose: 60.25 mg/kg/injection, schedule: Q01DX001 (ip), vehicle: Klucel (hydroxypropylcellulose) (HPC) 103 % of control and 107 % of control and 108 % of control | dose: 120.5 mg/kg/injection, schedule: Q01DX001 (ip), vehicle: Klucel (hydroxypropylcellulose) (HPC) 114 % of control and 115 % of control | dose: 241.0 mg/kg/injection, schedule: Q01DX001 (ip), vehicle: Klucel (hydroxypropylcellulose) (HPC) 108 % of control and 113 % of control

CCCCCCCCCCCCCC(=O)OC1C(C)C2(O)C(C=C(CO)CC3(O)C(O)C(C)=CC32)C2C(C)(C)C12OC(C)=O (stereo unspecified)
inactive: dose: 0.12 mg/kg/injection, schedule: Q01DX009 (ip), vehicle: saline 106 % of control | dose: 0.25 mg/kg/injection, schedule: Q01DX009 (ip), vehicle: saline 101 % of control | dose: 0.5 mg/kg/injection, schedule: Q01DX009 (ip), vehicle: saline 111 % of control | dose: 1.0 mg/kg/injection, schedule: Q01DX009 (ip), vehicle: saline 99 % of control | dose: 2.0 mg/kg/injection, schedule: Q01DX009 (ip), vehicle: saline 101 % of control

Oc1cc2c(cc1O)CN1CCc3cc(O)c(O)cc3C1C2 (stereo unspecified)
inactive: [10] 114 % of control | [11] 109 % of control | dose: 400.0 mg/kg/injection, schedule: Q01DX009 (ip), vehicle: saline 101 % of control

CCCCN(CCCC)CCN1C(=O)c2ccccc2S1(=O)=O
inactive: dose: 50.0 mg/kg/injection, schedule: Q01DX005 (ip), vehicle: saline 104 % of control | dose: 100.0 mg/kg/injection, schedule: Q01DX005 (ip), vehicle: saline 109 % of control | dose: 200.0 mg/kg/injection, schedule: Q01DX005 (ip), vehicle: saline 102 % of control

CNCCCC1c2ccccc2C=Cc2ccccc21
inactive: [13] 100 % of control | [14] 90 % of control

Cn1[nH]c2[nH]c(=S)sc(=S)c2c1=O
inactive: dose: 25.0 mg/kg/injection, schedule: Q01DX005 (ip), vehicle: Klucel (hydroxypropylcellulose) (HPC) 109 % of control | [4] 109 % of control | [5] 98 % of control | [6] 104 % of control

Cc1cc(NC(=S)SCc2ccc(Cl)cc2)ccc1Cl
inactive: [12] 103 % of control and 118 % of control | dose: 50.0 mg/kg/injection, schedule: Q01DX009 (ip), vehicle: suspension in saline 97 % of control | dose: 100.0 mg/kg/injection, schedule: Q01DX009 (ip), vehicle: suspension in saline 92 % of control | dose: 200.0 mg/kg/injection, schedule: Q01DX009 (ip), vehicle: suspension in saline 96 % of control
